pIC50: −log10 of the molar value. “And” between values parts separate entries of the source, which are not always exact repeats. Equal entries are not always repeated. Where two headings read alike, the source gives them in different places.
How the values were obtained:
Experiment in all cases: SelectScreen kinase assay
LRRK2 = LRRK2 (Homo sapiens, UniProt Q5S007)
Protocol: (§1) Selectivity profiling assays were performed by the Invitrogen SelectScreen™ Services. […] The concentration of ATP was selected to be equal to the KM, unless indicated otherwise.

ACVR2B = ACVR2B (Homo sapiens, UniProt Q13705)
Protocol: as §1

CDK13/cyclin K = CDK13/cyclin K (Homo sapiens, UniProt Q14004); format: biochemical
FLT4 (VEGFR3) [1] = details: IC50 on that kinase divided by IC50 on FES^S700C
Protocol: as §1

FLT4 (VEGFR3) [2] = target: FLT4 (VEGFR3) (Homo sapiens, UniProt P35916)
Protocol: as §1

EPHA5 = EPHA5 (Homo sapiens, UniProt P54756)
Protocol: as §1

MELK = MELK (Homo sapiens, UniProt Q14680)
Protocol: as §1

PI4K2A (PI4K2 alpha) = PI4K2A (PI4K2 alpha) (Homo sapiens, UniProt Q9BTU6)
Protocol: as §1

ACVRL1 (ALK1) = ACVRL1 (ALK1) (Homo sapiens, UniProt P37023)
Protocol: as §1

CSNK1G3 (CK1 gamma 3) = CSNK1G3 (CK1 gamma 3) (Homo sapiens, UniProt Q9Y6M4)
Protocol: as §1

KIT = KIT (Homo sapiens, UniProt P10721)
Protocol: as §1

NEK4 = NEK4 (Homo sapiens, UniProt P51957)
Protocol: as §1

DAPK2 = DAPK2 (Homo sapiens, UniProt Q9UIK4); details: for Inhibition at 1 µM (%): DAPK2, LanthaScreen Binding
Protocol: as §1

PAK1 = PAK1 (Homo sapiens, UniProt Q13153)
Protocol: as §1

MAP4K5 (KHS1) = MAP4K5 (KHS1) (Homo sapiens, UniProt Q9Y4K4); details: 1 h, 1 μM WEL028, 1 h preincubation
Protocol: as §1

TYK2 = TYK2 (Homo sapiens, UniProt P29597)
Protocol: as §1

PIK3CG (p110 gamma) = PIK3CG (p110 gamma) (Homo sapiens, UniProt P48736)
Protocol: as §1

CSNK1E (CK1 epsilon) = CSNK1E (CK1 epsilon) (Homo sapiens, UniProt P49674); details: for Inhibition at 1 µM (%): CSNK1E (CK1 epsilon), ZLYTE, ATP Km app
Protocol: as §1

CAMK1 (CaMK1) = CAMK1 (CaMK1) (Homo sapiens, UniProt Q14012); details: 1 h, 1 μM WEL028, 1 h preincubation
Protocol: as §1

CDK5/p35 = CDK5/p35 (Homo sapiens, UniProt Q00535)
Protocol: as §1

TBK1 = target: T1, TBK1 (Homo sapiens, UniProt Q9UHD2)
T1 sequence (Q9UHD2 1-729): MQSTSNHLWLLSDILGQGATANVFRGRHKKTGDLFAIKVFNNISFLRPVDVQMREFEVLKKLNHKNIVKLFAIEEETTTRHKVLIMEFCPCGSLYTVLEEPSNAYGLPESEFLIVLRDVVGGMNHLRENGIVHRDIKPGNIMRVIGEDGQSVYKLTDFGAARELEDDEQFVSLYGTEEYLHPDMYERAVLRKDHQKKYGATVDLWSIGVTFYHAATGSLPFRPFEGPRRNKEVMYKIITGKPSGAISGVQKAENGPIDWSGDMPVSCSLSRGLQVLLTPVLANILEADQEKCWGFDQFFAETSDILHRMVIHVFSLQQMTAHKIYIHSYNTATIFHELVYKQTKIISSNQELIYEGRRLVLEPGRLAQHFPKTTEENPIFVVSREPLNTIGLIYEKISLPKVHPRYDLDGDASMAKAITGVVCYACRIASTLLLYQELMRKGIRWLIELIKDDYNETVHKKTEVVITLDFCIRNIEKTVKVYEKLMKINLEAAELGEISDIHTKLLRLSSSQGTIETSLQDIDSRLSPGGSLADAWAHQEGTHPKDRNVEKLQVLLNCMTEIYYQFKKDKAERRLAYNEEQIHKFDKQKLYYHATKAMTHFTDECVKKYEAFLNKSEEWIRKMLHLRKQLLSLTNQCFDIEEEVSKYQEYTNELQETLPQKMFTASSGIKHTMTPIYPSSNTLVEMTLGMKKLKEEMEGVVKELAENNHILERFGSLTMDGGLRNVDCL
Protocol: as §1

DYRK4 = DYRK4 (Homo sapiens, UniProt Q9NR20); format: biochemical
[3] = read-out: Inhibition at 1 µM (%)
[4] = 1 h, 1 μM WEL028, 1 h preincubation
[5] = 1 µM, ZLYTE, ATP Km app, listed as WEL028, 1 µM

Sequence of TYK2 (P29597 whole entry): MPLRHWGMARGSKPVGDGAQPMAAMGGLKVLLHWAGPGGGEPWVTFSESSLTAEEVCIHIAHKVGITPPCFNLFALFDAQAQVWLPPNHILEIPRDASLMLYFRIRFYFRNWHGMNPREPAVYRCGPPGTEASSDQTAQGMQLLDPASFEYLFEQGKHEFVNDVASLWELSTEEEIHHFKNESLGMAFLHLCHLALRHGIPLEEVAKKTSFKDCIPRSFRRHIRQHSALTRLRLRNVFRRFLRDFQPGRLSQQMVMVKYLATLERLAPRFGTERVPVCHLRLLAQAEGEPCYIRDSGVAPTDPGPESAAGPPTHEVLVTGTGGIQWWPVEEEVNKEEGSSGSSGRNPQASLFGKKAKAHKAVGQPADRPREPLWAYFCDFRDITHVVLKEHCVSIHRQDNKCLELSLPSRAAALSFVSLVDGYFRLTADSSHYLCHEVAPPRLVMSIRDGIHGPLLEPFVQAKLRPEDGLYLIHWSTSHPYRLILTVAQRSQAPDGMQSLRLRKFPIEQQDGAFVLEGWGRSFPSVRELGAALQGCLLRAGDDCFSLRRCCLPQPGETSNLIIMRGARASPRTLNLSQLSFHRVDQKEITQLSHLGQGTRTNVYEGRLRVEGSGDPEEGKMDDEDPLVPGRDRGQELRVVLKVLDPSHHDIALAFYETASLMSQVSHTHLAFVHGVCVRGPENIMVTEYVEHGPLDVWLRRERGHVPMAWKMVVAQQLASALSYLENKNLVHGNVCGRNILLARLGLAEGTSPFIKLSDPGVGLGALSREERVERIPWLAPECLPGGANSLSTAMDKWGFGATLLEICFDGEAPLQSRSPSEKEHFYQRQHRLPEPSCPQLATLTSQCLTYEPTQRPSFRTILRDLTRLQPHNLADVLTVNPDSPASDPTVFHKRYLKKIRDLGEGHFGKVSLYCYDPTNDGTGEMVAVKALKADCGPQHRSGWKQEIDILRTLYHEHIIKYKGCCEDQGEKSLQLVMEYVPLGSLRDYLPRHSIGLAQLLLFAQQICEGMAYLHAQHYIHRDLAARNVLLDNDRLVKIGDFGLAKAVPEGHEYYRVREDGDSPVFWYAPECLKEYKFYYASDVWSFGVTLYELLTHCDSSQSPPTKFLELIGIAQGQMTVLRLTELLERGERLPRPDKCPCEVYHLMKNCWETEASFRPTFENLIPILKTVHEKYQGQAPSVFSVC
Sequence of CDK5/p35 (Q00535 whole entry): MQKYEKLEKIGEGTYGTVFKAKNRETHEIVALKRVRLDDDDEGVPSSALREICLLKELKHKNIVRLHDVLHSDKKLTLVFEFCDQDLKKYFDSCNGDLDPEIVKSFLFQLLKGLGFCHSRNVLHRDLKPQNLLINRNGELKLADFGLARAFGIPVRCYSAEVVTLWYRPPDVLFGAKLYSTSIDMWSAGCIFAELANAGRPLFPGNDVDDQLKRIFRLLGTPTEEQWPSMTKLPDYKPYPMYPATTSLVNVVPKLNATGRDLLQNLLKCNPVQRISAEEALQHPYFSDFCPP
Sequence of CDK5/p35 (Q15078 whole entry partner): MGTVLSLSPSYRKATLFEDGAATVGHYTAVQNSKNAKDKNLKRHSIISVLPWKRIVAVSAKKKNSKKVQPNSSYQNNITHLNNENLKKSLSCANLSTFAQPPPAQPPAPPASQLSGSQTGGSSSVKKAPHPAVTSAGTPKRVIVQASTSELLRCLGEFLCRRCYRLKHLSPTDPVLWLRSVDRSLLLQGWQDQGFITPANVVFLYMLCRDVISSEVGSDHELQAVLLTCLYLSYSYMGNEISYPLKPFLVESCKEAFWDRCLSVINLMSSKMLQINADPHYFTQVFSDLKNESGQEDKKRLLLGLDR
Sequence of CSNK1G3 (CK1 gamma 3) (Q9Y6M4 whole entry): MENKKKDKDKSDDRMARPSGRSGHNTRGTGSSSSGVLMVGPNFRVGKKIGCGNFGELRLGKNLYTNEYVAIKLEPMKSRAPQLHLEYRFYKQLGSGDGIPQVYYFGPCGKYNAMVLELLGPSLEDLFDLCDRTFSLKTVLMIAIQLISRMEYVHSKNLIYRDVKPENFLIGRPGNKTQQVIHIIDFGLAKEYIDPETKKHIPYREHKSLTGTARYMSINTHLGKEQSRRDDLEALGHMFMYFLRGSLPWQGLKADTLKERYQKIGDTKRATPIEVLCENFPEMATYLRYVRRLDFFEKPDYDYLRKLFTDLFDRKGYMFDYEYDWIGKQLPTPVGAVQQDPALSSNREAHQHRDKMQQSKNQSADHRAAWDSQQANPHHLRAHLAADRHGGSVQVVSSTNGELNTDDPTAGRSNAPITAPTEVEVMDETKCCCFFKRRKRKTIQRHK
Sequence of PIK3CG (p110 gamma) (P48736 whole entry): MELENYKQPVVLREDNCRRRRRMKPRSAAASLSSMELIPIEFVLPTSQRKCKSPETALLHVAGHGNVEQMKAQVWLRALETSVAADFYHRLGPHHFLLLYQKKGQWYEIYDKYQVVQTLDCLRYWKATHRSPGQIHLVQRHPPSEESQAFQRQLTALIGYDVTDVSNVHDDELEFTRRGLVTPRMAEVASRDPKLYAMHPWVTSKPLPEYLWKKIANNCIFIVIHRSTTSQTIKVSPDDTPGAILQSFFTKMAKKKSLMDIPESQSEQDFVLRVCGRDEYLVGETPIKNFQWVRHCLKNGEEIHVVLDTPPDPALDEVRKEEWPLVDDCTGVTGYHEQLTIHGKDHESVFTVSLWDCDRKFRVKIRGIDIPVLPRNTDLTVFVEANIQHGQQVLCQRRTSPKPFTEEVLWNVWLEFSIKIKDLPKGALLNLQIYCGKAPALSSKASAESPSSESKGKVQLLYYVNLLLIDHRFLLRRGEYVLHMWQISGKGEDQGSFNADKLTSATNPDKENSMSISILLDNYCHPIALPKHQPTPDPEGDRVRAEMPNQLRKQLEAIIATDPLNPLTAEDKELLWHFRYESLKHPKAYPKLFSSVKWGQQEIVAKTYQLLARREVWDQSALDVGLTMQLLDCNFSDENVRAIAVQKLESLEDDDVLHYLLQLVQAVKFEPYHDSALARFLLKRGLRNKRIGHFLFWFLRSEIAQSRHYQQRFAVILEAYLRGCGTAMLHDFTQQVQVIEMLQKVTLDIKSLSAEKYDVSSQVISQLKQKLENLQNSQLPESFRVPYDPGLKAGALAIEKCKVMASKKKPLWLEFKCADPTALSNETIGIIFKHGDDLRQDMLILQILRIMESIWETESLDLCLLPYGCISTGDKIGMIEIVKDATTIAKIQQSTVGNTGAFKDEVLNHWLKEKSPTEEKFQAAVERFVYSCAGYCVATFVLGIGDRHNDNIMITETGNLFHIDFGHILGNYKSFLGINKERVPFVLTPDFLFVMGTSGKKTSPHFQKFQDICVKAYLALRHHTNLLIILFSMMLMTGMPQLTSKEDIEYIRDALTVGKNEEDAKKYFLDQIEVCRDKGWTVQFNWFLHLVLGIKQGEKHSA
Sequence of EPHA5 (P54756 25-1037): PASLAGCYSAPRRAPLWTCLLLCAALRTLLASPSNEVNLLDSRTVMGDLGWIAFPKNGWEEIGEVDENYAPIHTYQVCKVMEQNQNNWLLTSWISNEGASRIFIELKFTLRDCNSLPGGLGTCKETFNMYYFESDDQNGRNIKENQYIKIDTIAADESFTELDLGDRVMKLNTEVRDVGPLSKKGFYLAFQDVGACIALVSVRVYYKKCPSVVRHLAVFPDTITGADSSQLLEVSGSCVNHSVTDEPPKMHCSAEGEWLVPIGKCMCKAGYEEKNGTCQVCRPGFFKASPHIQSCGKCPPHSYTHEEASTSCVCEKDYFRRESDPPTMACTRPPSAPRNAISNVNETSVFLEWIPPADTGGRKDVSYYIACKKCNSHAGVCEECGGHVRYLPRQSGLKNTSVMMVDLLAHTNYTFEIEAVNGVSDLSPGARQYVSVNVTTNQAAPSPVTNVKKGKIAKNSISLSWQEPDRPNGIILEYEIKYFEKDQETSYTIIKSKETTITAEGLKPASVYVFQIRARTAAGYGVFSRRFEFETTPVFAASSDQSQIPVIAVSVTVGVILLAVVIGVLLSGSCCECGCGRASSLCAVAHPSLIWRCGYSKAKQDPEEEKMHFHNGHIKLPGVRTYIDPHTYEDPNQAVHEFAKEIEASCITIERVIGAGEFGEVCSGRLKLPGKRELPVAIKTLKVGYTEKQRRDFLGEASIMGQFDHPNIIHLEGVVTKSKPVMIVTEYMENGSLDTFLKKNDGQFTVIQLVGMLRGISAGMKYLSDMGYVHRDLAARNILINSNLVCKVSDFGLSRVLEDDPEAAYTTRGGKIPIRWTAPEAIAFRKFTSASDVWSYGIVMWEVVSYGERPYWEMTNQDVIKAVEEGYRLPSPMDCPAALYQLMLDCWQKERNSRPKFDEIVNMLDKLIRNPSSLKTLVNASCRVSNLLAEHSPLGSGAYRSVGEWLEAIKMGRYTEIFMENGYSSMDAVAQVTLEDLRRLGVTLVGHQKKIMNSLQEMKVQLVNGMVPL
Sequence of PI4K2A (PI4K2 alpha) (Q9BTU6 whole entry): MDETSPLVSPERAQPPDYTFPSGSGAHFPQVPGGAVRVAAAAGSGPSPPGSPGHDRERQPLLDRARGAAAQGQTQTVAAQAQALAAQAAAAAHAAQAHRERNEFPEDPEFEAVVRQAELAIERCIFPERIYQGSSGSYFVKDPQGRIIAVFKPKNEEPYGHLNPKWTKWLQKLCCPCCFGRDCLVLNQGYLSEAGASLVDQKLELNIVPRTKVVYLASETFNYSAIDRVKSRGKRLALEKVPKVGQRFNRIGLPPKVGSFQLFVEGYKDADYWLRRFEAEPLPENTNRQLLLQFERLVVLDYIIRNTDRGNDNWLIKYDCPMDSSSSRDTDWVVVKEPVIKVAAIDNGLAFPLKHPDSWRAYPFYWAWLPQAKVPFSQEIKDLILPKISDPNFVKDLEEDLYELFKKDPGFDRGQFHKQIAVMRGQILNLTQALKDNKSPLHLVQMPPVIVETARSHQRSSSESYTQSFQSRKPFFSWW

Question: What does the source list for `C#CCOc1ccc(Nc2ncc(Cl)c(Nc3ccccc3NC(=O)C=C)n2)c(OC)c1` [Compound 6]?
Answer: pIC50 (LRRK2): 7.30; inhibition at 1 µM (LRRK2; 1 h): 94%; Apparent fold selectivity (LRRK2; IC50 on that kinase divided by IC50 on FES^S700C): 12 fold; inhibition at 1 µM (LRRK2; [3]): 94%; Inhibition (%) (ACVR2B; 1 μM WEL028, 1 h preincubation): 9%; Inhibition at 1 µM (%) (ACVR2B; ACVR2B, 1 µM, LanthaScreen Binding, listed as WEL028, 1 µM): 7%; inhibition at 1 µM (ACVR2B; read-out: Inhibition at 1 µM (%), ACVR2B, 1 µM, LanthaScreen Binding): 12%; Inhibition (%) (CDK13/cyclin K; 1 μM WEL028, 1 h preincubation): -3%; Inhibition at 1 µM (%) (CDK13/cyclin K; CDK13/cyclin K, 1 µM, LanthaScreen Binding, listed as WEL028, 1 µM): -1% and -5%; Apparent fold selectivity (FLT4 (VEGFR3) [1]): 50 fold; pIC50 (FLT4 (VEGFR3) [2]): 6.70; inhibition at 1 µM (FLT4 (VEGFR3) [2]; [4]): 120%; inhibition at 10 µM (FLT4 (VEGFR3) [2]; 1 h, log[inhibitor] (M) -5.00, ZLYTE, ATP Km app): 103%; inhibition at 3.31 µM (FLT4 (VEGFR3) [2]; 1 h, log[inhibitor] (M) -5.48, ZLYTE, ATP Km app): 100%; inhibition at 1.12 µM (FLT4 (VEGFR3) [2]; 1 h, log[inhibitor] (M) -5.95, ZLYTE, ATP Km app): 95%; inhibition at 0.372 µM (FLT4 (VEGFR3) [2]; 1 h, log[inhibitor] (M) -6.43, ZLYTE, ATP Km app): 70%; inhibition at 0.123 µM (FLT4 (VEGFR3) [2]; 1 h, log[inhibitor] (M) -6.91, ZLYTE, ATP Km app): 38%; inhibition at 0.04074 µM (FLT4 (VEGFR3) [2]; 1 h, log[inhibitor] (M) -7.39, ZLYTE, ATP Km app): 9%; inhibition at 0.0138 µM (FLT4 (VEGFR3) [2]; 1 h, log[inhibitor] (M) -7.86, ZLYTE, ATP Km app): 4%; inhibition at 0.00151 µM (FLT4 (VEGFR3) [2]; 1 h, log[inhibitor] (M) -8.82, ZLYTE, ATP Km app): 2%; inhibition at 1 µM (FLT4 (VEGFR3) [2]; read-out: Inhibition at 1 µM (%), FLT4 (VEGFR3), 1 µM, ZLYTE, ATP Km app): 121%; Inhibition (%) (EPHA5; 1 μM WEL028, 1 h preincubation): 0%; Inhibition at 1 µM (%) (EPHA5; EPHA5, 1 µM, ZLYTE, ATP Km app, listed as WEL028, 1 µM): 3% and -2%; inhibition at 1 µM (MELK; [4]): -2%; Inhibition at 1 µM (%) (MELK; MELK, 1 µM, ZLYTE, ATP Km app, listed as WEL028, 1 µM): -3%; inhibition at 1 µM (PI4K2A (PI4K2 alpha); [4]): 0%; Inhibition at 1 µM (%) (PI4K2A (PI4K2 alpha); PI4K2A (PI4K2 alpha), 1 µM, Adapta, ATP 10, listed as WEL028, 1 µM): 2% and -2%; inhibition at 1 µM (ACVRL1 (ALK1); [4]): 6%; Inhibition at 1 µM (%) (ACVRL1 (ALK1); ACVRL1 (ALK1), 1 µM, LanthaScreen Binding): 12%; Inhibition (%) (CSNK1G3 (CK1 gamma 3); 1 μM WEL028, 1 h preincubation): 0%; Inhibition at 1 µM (%) (CSNK1G3 (CK1 gamma 3); CSNK1G3 (CK1 gamma 3), 1 µM, ZLYTE, ATP Km app, listed as WEL028, 1 µM): 3% and -2%; inhibition at 1 µM (KIT; [4]): 18%; Inhibition at 1 µM (%) (KIT; KIT, 1 µM, ZLYTE, ATP Km app, listed as WEL028, 1 µM): 16%; inhibition at 1 µM (KIT; read-out: Inhibition at 1 µM (%), KIT, 1 µM, ZLYTE, ATP Km app): 21%; inhibition at 1 µM (NEK4; [4]): 4%; Inhibition at 1 µM (%) (NEK4; NEK4, 1 µM, ZLYTE, ATP Km app, listed as WEL028, 1 µM): 5%; inhibition at 1 µM (NEK4; read-out: Inhibition at 1 µM (%), NEK4, 1 µM, ZLYTE, ATP Km app): 4%; inhibition at 1 µM (DAPK2; [4]): 10%; Inhibition at 1 µM (%) (DAPK2): 14%; Inhibition at 1 µM (%) (DAPK2; listed as WEL028, 1 µM): 6%; inhibition at 1 µM (PAK1; 1 h): 8%; inhibition at 1 µM (PAK1; [3]): 8%; inhibition at 1 µM (MAP4K5 (KHS1)): -5%; Inhibition (%) (TYK2; 1 μM WEL028, 1 h preincubation): -1%; Inhibition at 1 µM (%) (TYK2; [5]): -6% and 4%; inhibition at 1 µM (PIK3CG (p110 gamma); [4]): 13%; Inhibition at 1 µM (%) (PIK3CG (p110 gamma); PIK3CG (p110 gamma), 1 µM, Adapta, ATP Km app, listed as WEL028, 1 µM): 18%; inhibition at 1 µM (PIK3CG (p110 gamma); read-out: Inhibition at 1 µM (%), PIK3CG (p110 gamma), 1 µM, Adapta, ATP Km app): 9%; inhibition at 1 µM (CSNK1E (CK1 epsilon); [4]): 9%; Inhibition at 1 µM (%) (CSNK1E (CK1 epsilon)): 14%; Inhibition at 1 µM (%) (CSNK1E (CK1 epsilon); listed as WEL028, 1 µM): 4%; inhibition at 1 µM (CAMK1 (CaMK1)): 6%; inhibition at 1 µM (CDK5/p35; [4]): -4%; Inhibition at 1 µM (%) (CDK5/p35; CDK5/p35, 1 µM, ZLYTE, ATP Km app, listed as WEL028, 1 µM): -8% and 0%; Inhibition at 1 µM (%) (TBK1; [5]): 6%; inhibition at 1 µM (TBK1; [4]): 7%; inhibition at 1 µM (TBK1; read-out: Inhibition at 1 µM (%), 1 µM, ZLYTE, ATP Km app): 8%; inhibition at 1 µM (DYRK4; [4]): 0%; Inhibition at 1 µM (%) (DYRK4; DYRK4, 1 µM, ZLYTE, ATP Km app, listed as WEL028, 1 µM): -4% and 4%

From publication PMC7316778 (Nature Communications, 2020)
